One data set deals with patients. The settings on record: human, in vivo; cited from earlier work.
The next data set relates to shrews. Description: emesis, tirzepatide dose-response, shrews. It is filed as in vivo, Suncus murinus. Conditions: 10, 100 and 1000 nmol/kg ip; 120 min; n = 9 per group. From the text:
Adult male shrews (S. murinus) weighing ~50 to 80 g (n = 84 total) were bred and maintained in the De Jonghe Lab (University of Pennsylvania). These animals were offspring from a colony previously maintained at the University of Pittsburgh Cancer Institute (C. Horn); a Taiwanese strain was derived from stock originally supplied by the Chinese University of Hong Kong. Shrews were singly housed in plastic cages (37.3 cm by 23.4 cm by 14 cm, Innovive) under a 12-hour/12-hour light/dark cycle in a temperature-controlled and humidity-controlled environment. Animal were fed ad libitum with a mixture of feline (75%, Laboratory Feline Diet 5003, Lab Diet) and mink food (25%, High Density Ferret Diet 5LI4, Lab Diet) and had ad libitum access to tap water except where noted.
We then evaluated the emetogenic actions of tirzepatide (10, 100, and 1000 nmol/kg) or vehicle in a different cohort of shrews (n = 9). The animals were habituated to the experimental conditions as described above. Treatments were separated by 7 days. Emetic episodes were recorded and quantified as described above.

Another data set has as its system rats. Description: food and kaolin consumption and body weight in rats (semaglutide, tirzepatide). It is filed as in vivo, Sprague-Dawley rat. From the text: Adult male Sprague-Dawley rats (Charles River) weighing ~250 to 270 g (n = 45) at arrival were housed under a 12-hour/12-hour light/dark cycle in a temperature-controlled and humidity-controlled vivarium. Rats were individually housed in hanging wire-bottom cage with ad libitum access to chow diet (Purina Lab Diet 5001) or, when noted, to high-fat/high-sugar diet (60% fat diet, 12492, Research Diets) and tap water and had ad libitum access to kaolin pellets (Research Diets, K50001). Rats were exposed to kaolin for at least 5 days prior to measuring kaolin consumption in pica testing. Kaolin intake and food consumption were measured simultaneously as the presence of kaolin in the cage, and its subsequent ingestion, has usually negligible effects on the hypophagic and body weight–lowering effects of the treatments.
GIPFA-085 (GIP-085), tirzepatide, and GLP-140 were designed and produced by Eli Lilly and Company. GIP-085, GLP-140, and semaglutide (Cayman Chemical) were dissolved in 40 mM tris-HCl buffer (pH 8) and 0.02% Tween 80. For the study in mice, all drugs were injected subcutaneously at a volume of 5 ml/kg of body weight. In rats, all drugs were injected intraperitoneally, at a volume of 1 ml/kg of body weight, except when noted. In shrews, all drugs were injected intraperitoneally at a volume of 10 ml/kg of body weight.
In two separate cohorts of rats (n = 10 per group, body weight ~ 460 ± 9 g), food consumption, kaolin intake, and body weight were measured after an intraperitoneal administration of vehicle, semaglutide (10 and 100 nmol/kg), or tirzepatide (10 and 100 nmol/kg), respectively. Food and kaolin intake were measured at 3, 6, 24, and 48 hours postinjection, and body weight was measured at 0, 24, and 48 hours. For each drug, a within-subject paradigm was used, with each round of injections separated by 7 days.

Entries after “also recorded” stand apart in the source; their conditions may differ.

As to “AMG 133: bispecific molecule engineered by conjugating a GIPR antagonizing antibody with a GLP-1R agonist”, the patients reporting nausea in the data set on patients is reported as 100%.
Regarding `CC[C@H](C)[C@H](NC(=O)[C@H](CC(C)C)NC(=O)[C@H](Cc1c[nH]c2ccccc12)NC(=O)[C@H](CCC(N)=O)NC(=O)[C@@H](NC(=O)[C@H](Cc1ccccc1)NC(=O)[C@H](C)NC(=O)[C@H](CCCCNC(=O)COCCOCCNC(=O)COCCOCCNC(=O)CC[C@H](NC(=O)CCCCCCCCCCCCCCCCCCC(=O)O)C(=O)O)NC(=O)[C@H](CCC(N)=O)NC(=O)[C@H](C)NC(=O)[C@@H](NC(=O)[C@H](CCCCN)NC(=O)[C@H](CC(=O)O)NC(=O)[C@H](CC(C)C)NC(=O)C(C)(C)NC(=O)[C@@H](NC(=O)[C@H](CO)NC(=O)[C@H](Cc1ccc(O)cc1)NC(=O)[C@H](CC(=O)O)NC(=O)[C@H](CO)NC(=O)[C@@H](NC(=O)[C@H](Cc1ccccc1)NC(=O)[C@@H](NC(=O)CNC(=O)[C@H](CCC(=O)O)NC(=O)C(C)(C)NC(=O)[C@@H](N)Cc1ccc(O)cc1)[C@@H](C)O)[C@@H](C)O)[C@@H](C)CC)[C@@H](C)CC)C(C)C)C(=O)N[C@@H](C)C(=O)NCC(=O)NCC(=O)N1CCC[C@H]1C(=O)N[C@@H](CO)C(=O)N[C@@H](CO)C(=O)NCC(=O)N[C@@H](C)C(=O)N1CCC[C@H]1C(=O)N1CCC[C@H]1C(=O)N1CCC[C@H]1C(=O)N[C@@H](CO)C(N)=O` [tirzepatide], the emesis entry with shrews is reported as “complete absence of emesis; also recorded: no emesis occurred; also recorded: complete absence of any emetic episode”. Also, the kaolin intake result in the data set with rats (100 nmol/kg ip, n = 10 per group, vs vehicle) was “causes significant kaolin intake”. In the data set on rats (100 nmol/kg ip, n = 10 to 20 per group), the “kaolin consumption, semaglutide vs tirzepatide” value is given as “induces less kaolin consumption in rats compared to equipotent doses of semaglutide”. Also, the “kaolin consumption vs vehicle, tirzepatide” value with rats (tirzepatide, rats (dose not stated at this place)) is listed as “still significantly elevated compared to vehicle-treated animals”.

(Values after article PMC12175907 (Science Advances, 2025).)
